Measurements: article PMC3879121 (Journal of natural products, 2013)

Legend:
[1] = test system: human dermal fibroblast (hDF) cells; assay: Cell cytotoxicity MTS-PMS assay, hDF; type: cell-based; details: 72 h, read-out: hDF GI50
HDAC2 = HDAC2 (Homo sapiens, UniProt Q92769); assay: HDAC enzyme assay; details: for inhibition of HDAC2: at 1 µM, initial results (data not shown)
HDAC4 = HDAC4 (Homo sapiens, UniProt P56524); assay: HDAC enzyme assay; details: at 1 µM, initial results (data not shown)
Sequence of HDAC4 (P56524 whole entry): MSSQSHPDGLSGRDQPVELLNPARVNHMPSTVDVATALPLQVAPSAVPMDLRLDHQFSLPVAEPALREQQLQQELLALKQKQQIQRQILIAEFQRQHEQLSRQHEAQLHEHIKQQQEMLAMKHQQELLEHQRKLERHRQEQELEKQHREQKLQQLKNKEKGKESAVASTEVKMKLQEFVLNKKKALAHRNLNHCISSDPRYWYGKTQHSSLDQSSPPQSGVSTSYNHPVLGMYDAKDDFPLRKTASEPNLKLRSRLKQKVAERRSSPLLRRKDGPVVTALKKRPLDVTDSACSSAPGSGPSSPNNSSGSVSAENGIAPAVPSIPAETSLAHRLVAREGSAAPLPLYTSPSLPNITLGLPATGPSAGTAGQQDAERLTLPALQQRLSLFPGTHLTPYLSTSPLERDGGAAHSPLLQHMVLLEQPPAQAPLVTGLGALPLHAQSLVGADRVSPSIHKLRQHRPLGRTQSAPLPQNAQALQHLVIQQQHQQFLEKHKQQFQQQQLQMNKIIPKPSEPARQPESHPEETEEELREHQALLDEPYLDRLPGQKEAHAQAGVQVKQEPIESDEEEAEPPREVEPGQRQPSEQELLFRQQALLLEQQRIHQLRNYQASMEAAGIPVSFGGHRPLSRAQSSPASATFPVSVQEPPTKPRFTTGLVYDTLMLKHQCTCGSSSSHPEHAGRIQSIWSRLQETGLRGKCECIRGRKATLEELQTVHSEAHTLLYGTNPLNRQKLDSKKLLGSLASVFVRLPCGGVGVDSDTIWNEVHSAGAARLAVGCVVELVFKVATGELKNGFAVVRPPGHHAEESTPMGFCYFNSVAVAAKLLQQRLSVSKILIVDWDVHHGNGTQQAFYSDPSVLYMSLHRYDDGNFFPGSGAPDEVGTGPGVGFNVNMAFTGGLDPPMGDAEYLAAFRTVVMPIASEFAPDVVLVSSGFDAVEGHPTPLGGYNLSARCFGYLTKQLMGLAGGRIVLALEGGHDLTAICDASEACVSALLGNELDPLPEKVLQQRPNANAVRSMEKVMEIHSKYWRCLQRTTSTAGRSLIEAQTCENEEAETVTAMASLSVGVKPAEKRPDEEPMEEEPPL

Sequence of HDAC2 (Q92769 whole entry): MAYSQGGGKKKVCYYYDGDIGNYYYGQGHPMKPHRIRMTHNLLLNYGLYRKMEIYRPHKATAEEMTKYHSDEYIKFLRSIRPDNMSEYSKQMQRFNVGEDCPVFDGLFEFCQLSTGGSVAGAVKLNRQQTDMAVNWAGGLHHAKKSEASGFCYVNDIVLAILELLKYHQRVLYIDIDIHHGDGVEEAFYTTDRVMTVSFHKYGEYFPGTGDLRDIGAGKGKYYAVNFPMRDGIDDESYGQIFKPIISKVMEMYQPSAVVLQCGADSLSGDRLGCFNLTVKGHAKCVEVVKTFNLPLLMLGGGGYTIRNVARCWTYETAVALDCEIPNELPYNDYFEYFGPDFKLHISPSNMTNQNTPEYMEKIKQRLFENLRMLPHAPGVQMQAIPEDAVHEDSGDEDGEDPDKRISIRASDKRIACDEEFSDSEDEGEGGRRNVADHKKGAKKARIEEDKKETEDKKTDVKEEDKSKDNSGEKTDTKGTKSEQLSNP

| SMILES | GI50 [1] [µM] | selectivity for Class I HDACs (HDAC2; HDAC2 versus Class II HDACs) | inhibition of HDAC2 (HDAC2) | inhibition of HDAC4 (HDAC4) |
| --- | --- | --- | --- | --- |
| CCOC(=O)NCCCC(=O)NCCc1ccccc1 [compound 1, Ethyl 3-(phenethylcarbamoyl)propylcarbamate] | > 100 | over 3,500 fold | selectively inhibited HDAC2 | relatively little inhibition of HDAC4 |
| O=C(CCCCCCC(=O)Nc1ccccc1)NO [compound 2, suberoylanilide hydroxamic acid, reference compound] | – | – | – | completely inhibited |
| O=C(CCCC(=O)NCCc1ccccc1)NO [compound 3, N^1-Hydroxy-N^5-phenethylglutaramide] | > 100 | – | selectively inhibited HDAC2 | relatively little inhibition of HDAC4 |
